# pIC50: −log10 of the molar value. Active and inactive are the calls of the source. The calls are words filed in the database; no cut-off is given here.
# What was measured:
# [1] = target: T1, Protein cereblon/Receptor-type tyrosine-protein kinase FLT3 (Homo sapiens, UniProt P36888+Q96SW2); experiment: PROTAC activity at CRBN/FLT3 in human MV4-11 cells harboring FLT3-ITD mutation assessed as induction of FLT3 degradation incubated for 24 hrs by immunoblotting analysis; format: cell-based
# [2] = target: T1, Protein cereblon/Receptor-type tyrosine-protein kinase FLT3; experiment: PROTAC activity at CRBN/FLT3 in human MV4-11 cells harboring FLT3-ITD mutation assessed as induction of FLT3 degradation by measuring maximal efficacy incubated for 24 hrs by immunoblotting analysis relative to control; format: cell-based
# Target sequence in this assay (P36888 27-993 limits assumed): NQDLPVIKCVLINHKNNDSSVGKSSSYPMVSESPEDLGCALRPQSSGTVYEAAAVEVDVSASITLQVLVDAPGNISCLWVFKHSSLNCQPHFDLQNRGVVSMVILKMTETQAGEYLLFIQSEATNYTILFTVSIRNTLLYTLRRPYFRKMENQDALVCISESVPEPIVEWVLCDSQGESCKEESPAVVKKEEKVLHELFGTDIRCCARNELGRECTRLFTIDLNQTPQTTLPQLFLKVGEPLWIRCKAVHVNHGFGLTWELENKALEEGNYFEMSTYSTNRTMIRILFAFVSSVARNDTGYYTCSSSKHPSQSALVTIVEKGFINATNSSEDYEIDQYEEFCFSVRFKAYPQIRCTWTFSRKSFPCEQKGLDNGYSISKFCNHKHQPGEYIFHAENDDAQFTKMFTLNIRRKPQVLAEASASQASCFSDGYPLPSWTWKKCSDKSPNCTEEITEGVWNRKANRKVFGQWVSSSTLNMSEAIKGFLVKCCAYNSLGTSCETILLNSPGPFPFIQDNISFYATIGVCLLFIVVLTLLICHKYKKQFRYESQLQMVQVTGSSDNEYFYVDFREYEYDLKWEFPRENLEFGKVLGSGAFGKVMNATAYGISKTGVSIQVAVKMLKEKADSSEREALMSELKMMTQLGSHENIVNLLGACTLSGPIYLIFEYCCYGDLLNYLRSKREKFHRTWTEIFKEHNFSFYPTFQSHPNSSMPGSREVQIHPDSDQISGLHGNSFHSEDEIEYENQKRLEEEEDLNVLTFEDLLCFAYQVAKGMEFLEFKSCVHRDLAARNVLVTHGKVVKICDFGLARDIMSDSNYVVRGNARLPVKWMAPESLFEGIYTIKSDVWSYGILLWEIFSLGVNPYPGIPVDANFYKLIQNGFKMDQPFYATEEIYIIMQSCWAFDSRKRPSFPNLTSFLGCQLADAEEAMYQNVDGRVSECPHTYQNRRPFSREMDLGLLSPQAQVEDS
# Target sequence in this assay (Q96SW2 whole entry partner): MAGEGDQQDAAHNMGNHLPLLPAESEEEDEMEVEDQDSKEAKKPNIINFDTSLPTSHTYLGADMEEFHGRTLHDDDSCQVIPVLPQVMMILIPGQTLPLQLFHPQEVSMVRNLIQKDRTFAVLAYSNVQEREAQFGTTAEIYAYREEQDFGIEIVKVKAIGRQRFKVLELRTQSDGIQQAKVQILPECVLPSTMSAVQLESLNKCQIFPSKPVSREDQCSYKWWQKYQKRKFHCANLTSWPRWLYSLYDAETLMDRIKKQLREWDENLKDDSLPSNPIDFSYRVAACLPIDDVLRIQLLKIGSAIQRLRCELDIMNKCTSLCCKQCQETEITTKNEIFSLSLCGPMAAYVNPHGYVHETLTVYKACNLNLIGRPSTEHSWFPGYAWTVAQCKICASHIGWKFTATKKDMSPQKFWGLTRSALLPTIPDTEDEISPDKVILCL
# [3] = target: T1, Protein cereblon/Receptor-type tyrosine-protein kinase FLT3; experiment: PROTAC activity at CRBN/FLT3 in human MV4-11 cells harboring FLT3-ITD mutation assessed as induction of FLT3 degradation at 1 nM incubated for 2 to 20 hrs by Immunoblotting analysis; format: cell-based; conditions: time 2-20 hrs
# Target sequence in this assay (P36888 27-993 limits assumed): as the sequence (P36888 27-993 limits assumed) above
# Target sequence in this assay (Q96SW2 whole entry partner): as the sequence (Q96SW2 whole entry partner) above
# [4] = target: Tyrosine-protein kinase receptor UFO (Homo sapiens) (UniProt P30530); experiment: Induction of AXL degradation in human MDA-MB-231 cells at 1 to 10 nM measured upto 20 hrs by immunoblotting analysis; format: cell-based; conditions: dose 1-10 nM
# [5] = target: ALK tyrosine kinase receptor (Homo sapiens) (UniProt Q9UM73); experiment: Induction of ALK degradation in human Raji cells at 1 to 10 nM measured upto 24 hrs by immunoblotting analysis; format: cell-based; conditions: dose 1-10 nM
# [6] = target: Leukocyte tyrosine kinase receptor (Homo sapiens) (UniProt P29376); experiment: Induction of LTK degradation in human Raji cells at 1 to 10 nM measured upto 24 hrs by immunoblotting analysis; format: cell-based; conditions: dose 1-10 nM
# [7] = target: T1, Protein cereblon/Receptor-type tyrosine-protein kinase FLT3; experiment: PROTAC activity at CRBN/FLT3 in human MV4-11 cells harboring FLT3 ITD mutation assessed as induction of FLT3 degradation at 1 nM incubated for 6 hrs in presence of lenalidomide by Immunoblotting analysis; format: cell-based
# Target sequence in this assay (P36888 27-993 limits assumed): as the sequence (P36888 27-993 limits assumed) above
# Target sequence in this assay (Q96SW2 whole entry partner): as the sequence (Q96SW2 whole entry partner) above
# [8] = target: T1, Protein cereblon/Receptor-type tyrosine-protein kinase FLT3; experiment: PROTAC activity at CRBN/FLT3 in human MV4-11 cells harboring FLT3 ITD mutation assessed as induction of FLT3 degradation at 1 nM incubated for 6 hrs in presence of gilteritinib by immunoblotting analysis; format: cell-based
# Target sequence in this assay (P36888 27-993 limits assumed): as the sequence (P36888 27-993 limits assumed) above
# Target sequence in this assay (Q96SW2 whole entry partner): as the sequence (Q96SW2 whole entry partner) above
# [9] = target: T1, Protein cereblon/Receptor-type tyrosine-protein kinase FLT3; experiment: PROTAC activity at CRBN/FLT3 in human MV4-11 cells harboring FLT3 ITD mutation assessed as induction of FLT3 degradation at 1 nM incubated for 6 hrs in presence of MLN4924 by immunoblotting analysis; format: cell-based
# Target sequence in this assay (P36888 27-993 limits assumed): as the sequence (P36888 27-993 limits assumed) above
# Target sequence in this assay (Q96SW2 whole entry partner): as the sequence (Q96SW2 whole entry partner) above
# [10] = target: T1, Protein cereblon/Receptor-type tyrosine-protein kinase FLT3; experiment: PROTAC activity at CRBN/FLT3 in human MV4-11 cells harboring FLT3 ITD mutation assessed as induction of FLT3 degradation at 1 nM incubated for 6 hrs in presence of MG132 by immunoblotting analysis; format: cell-based
# Target sequence in this assay (P36888 27-993 limits assumed): as the sequence (P36888 27-993 limits assumed) above
# Target sequence in this assay (Q96SW2 whole entry partner): as the sequence (Q96SW2 whole entry partner) above
# [11] = target: T1, Protein cereblon/Receptor-type tyrosine-protein kinase FLT3; experiment: PROTAC activity at CRBN/FLT3 in human MV4-11 cells harboring FLT3 ITD mutation assessed as induction of FLT3 degradation at 1 nM incubated for 6 hrs in presence of bafilomycin by immunoblotting analysis; format: cell-based
# [12] = target: T1, Protein cereblon/Receptor-type tyrosine-protein kinase FLT3; experiment: PROTAC activity at CRBN/FLT3 in human MV4-11 cells harboring FLT3 ITD mutation assessed as induction of FLT3 degradation at 1 nM measured upto 12 hrs in presence of cycloheximide by immunoblotting analysis; format: cell-based
# [13] = tested on: MV4-11; experiment: Antiproliferative activity against human MV4-11 cells assessed as inhibition of cell proliferation incubated for 72 hrs by CCK8 assay; format: functional, cell-based; conditions: MV4-11, 72 h
# [14] = tested on: MV4-11; experiment: Potency index, ratio of gilteritinib IC50 to test compound IC50 for antiproliferative activity against human MV4-11 cells assessed as inhibition of cell proliferation incubated for 72 hrs by CCK8 assay; format: functional
# [15] = tested on: MV4-11; experiment: Induction of apoptosis in human MV4-11 cells incubated for 48 hrs by Annexin V/7-AAD staining based flow cytometric analysis; format: functional, cell-based; conditions: dose 0.016-10 nM
# [16] = tested on: MV4-11; experiment: Induction of apoptosis in human MV4-11 cells assessed as early apoptotic cells at 2 nM incubated for 48 hrs by Annexin V/7-AAD staining based flow cytometric analysis relative to control; format: functional
# [17] = tested on: MV4-11; experiment: Induction of apoptosis in human MV4-11 cells assessed as late apoptotic cells at 2 nM incubated for 48 hrs by Annexin V/7-AAD staining based flow cytometric analysis relative to control; format: functional
# [18] = tested on: MV4-11; experiment: Induction of apoptosis in human MV4-11 cells assessed as early apoptotic cells at 10 nM incubated for 48 hrs by Annexin V/7-AAD staining based flow cytometric analysis relative to control; format: functional
# [19] = tested on: MV4-11; experiment: Induction of apoptosis in human MV4-11 cells assessed as late apoptotic cells at 10 nM incubated for 48 hrs by Annexin V/7-AAD staining based flow cytometric analysis relative to control; format: functional
# [20] = tested on: MV4-11; experiment: Induction of apoptosis in human MV4-11 cells assessed as necrotic cells at 10 nM incubated for 48 hrs by Annexin V/7-AAD staining based flow cytometric analysis relative to control; format: functional
# [21] = tested on: MV4-11; experiment: Induction of apoptosis in human MV4-11 cells assessed as increase in cleaved PARP level at 2 to 10 nM incubated for 48 hrs by immunoblotting analysis; format: functional, cell-based; conditions: dose 2-10 nM
# [22] = tested on: MV4-11; experiment: Induction of apoptosis in human MV4-11 cells assessed as increase in cleaved caspase 3 level at 2 to 10 nM incubated for 48 hrs by immunoblotting analysis; format: functional, cell-based; conditions: dose 2-10 nM
# [23] = tested on: MV4-11; experiment: Induction of cell cycle arrest at G0/G1 phase in human MV4-11 cells assessed as sub-G0/G1 phase cells at 0.4 nM incubated for 24 hrs by PI staining based flow cytometric analysis relative to control; format: functional
# [24] = tested on: MV4-11; experiment: Induction of cell cycle arrest at G0/G1 phase in human MV4-11 cells assessed as G0/G1 phase cells at 0.4 nM incubated for 24 hrs by PI staining based flow cytometric analysis relative to control; format: functional
# [25] = tested on: MV4-11; experiment: Induction of cell cycle arrest at G0/G1 phase in human MV4-11 cells assessed as S phase cells at 0.4 nM incubated for 24 hrs by PI staining based flow cytometric analysis relative to control; format: functional
# [26] = tested on: MV4-11; experiment: Induction of cell cycle arrest at G0/G1 phase in human MV4-11 cells assessed as G2/M phase cells at 0.4 nM incubated for 24 hrs by PI staining based flow cytometric analysis relative to control; format: functional
# [27] = tested on: MV4-11; experiment: Induction of cell cycle arrest at G0/G1 phase in human MV4-11 cells assessed as sub-G0/G1 phase cells at 2 nM incubated for 24 hrs by PI staining based flow cytometric analysis relative to control; format: functional
# [28] = tested on: MV4-11; experiment: Induction of cell cycle arrest at G0/G1 phase in human MV4-11 cells assessed as G0/G1 phase cells at 2 nM incubated for 24 hrs by PI staining based flow cytometric analysis relative to control; format: functional
# [29] = tested on: MV4-11; experiment: Induction of cell cycle arrest at G0/G1 phase in human MV4-11 cells assessed as S phase cells at 2 nM incubated for 24 hrs by PI staining based flow cytometric analysis relative to control; format: functional
# [30] = tested on: MV4-11; experiment: Induction of cell cycle arrest at G0/G1 phase in human MV4-11 cells assessed as G2/M phase cells at 2 nM incubated for 24 hrs by PI staining based flow cytometric analysis relative to control; format: functional
# [31] = tested on: MV4-11; experiment: Inhibition of PI3K/AKT signaling pathway in human MV4-11 cells assessed as reduction in AKT phosphorylation incubated for 24 hrs by immunoblotting analysis; format: cell-based; conditions: dose 0.08-50 nM
# [32] = target: T1, Protein cereblon/Receptor-type tyrosine-protein kinase FLT3; experiment: PROTAC activity at CRBN/FLT3 in human MV4-11 cells harboring FLT3-ITD mutation assessed as reduction in FLT3 phosphorylation incubated for 24 hrs by immunoblotting analysis; format: cell-based; conditions: dose 0.08-50 nM
# [33] = tested on: MV4-11; experiment: Inhibition of JAK/STAT5 signaling pathway in human MV4-11 cells assessed as reduction in STAT5 phosphorylation incubated for 24 hrs by immunoblotting analysis; format: cell-based; conditions: dose 0.08-50 nM
# [34] = tested on: MV4-11; experiment: Inhibition of ERK phosphorylation in human MV4-11 cells incubated for 24 hrs by immunoblotting analysis; format: cell-based; conditions: dose 0.08-50 nM
# [35] = tested on: MV4-11; experiment: Antitumor activity against human MV4-11 cells xenografted in NOD/SCID mouse assessed as reduction in tumor volume at 6 mg/kg, ip administered once a day for 21 days; format: functional, organism-based; conditions: time 21.0 day
# [36] = Toxicity in NOD/SCID mouse xenografted with human MV4-11 cells assessed as weight loss at 6 mg/kg, ip administered once daily for 21 days; format: organism-based; conditions: in vivo, 504 h, time 21 day
# Chain of Tyrosine-protein kinase receptor UFO (Homo sapiens) (P30530 whole entry): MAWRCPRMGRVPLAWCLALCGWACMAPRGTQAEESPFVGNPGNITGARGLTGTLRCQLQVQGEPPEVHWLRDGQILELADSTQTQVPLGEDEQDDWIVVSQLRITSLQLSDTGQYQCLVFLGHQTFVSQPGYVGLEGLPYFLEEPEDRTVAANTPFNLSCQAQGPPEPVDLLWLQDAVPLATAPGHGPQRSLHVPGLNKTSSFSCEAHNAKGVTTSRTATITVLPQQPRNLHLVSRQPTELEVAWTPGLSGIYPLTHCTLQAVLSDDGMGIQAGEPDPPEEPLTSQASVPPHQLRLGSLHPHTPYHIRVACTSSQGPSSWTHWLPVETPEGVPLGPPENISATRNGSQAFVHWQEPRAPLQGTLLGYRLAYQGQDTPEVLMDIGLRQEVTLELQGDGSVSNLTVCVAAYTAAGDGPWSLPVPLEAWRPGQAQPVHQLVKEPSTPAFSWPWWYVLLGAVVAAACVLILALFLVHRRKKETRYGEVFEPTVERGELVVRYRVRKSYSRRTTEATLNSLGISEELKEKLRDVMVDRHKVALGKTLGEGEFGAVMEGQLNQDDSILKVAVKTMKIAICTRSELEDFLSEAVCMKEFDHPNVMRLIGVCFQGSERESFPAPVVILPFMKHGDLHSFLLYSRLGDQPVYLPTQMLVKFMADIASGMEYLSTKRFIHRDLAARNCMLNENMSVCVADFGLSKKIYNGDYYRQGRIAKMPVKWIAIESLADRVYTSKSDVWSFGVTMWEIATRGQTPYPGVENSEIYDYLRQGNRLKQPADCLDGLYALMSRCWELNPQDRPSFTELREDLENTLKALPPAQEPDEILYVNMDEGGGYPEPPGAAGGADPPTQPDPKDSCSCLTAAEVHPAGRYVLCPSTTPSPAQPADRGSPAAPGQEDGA
# Chain of ALK tyrosine kinase receptor (Homo sapiens) (Q9UM73 19-1620 limits assumed): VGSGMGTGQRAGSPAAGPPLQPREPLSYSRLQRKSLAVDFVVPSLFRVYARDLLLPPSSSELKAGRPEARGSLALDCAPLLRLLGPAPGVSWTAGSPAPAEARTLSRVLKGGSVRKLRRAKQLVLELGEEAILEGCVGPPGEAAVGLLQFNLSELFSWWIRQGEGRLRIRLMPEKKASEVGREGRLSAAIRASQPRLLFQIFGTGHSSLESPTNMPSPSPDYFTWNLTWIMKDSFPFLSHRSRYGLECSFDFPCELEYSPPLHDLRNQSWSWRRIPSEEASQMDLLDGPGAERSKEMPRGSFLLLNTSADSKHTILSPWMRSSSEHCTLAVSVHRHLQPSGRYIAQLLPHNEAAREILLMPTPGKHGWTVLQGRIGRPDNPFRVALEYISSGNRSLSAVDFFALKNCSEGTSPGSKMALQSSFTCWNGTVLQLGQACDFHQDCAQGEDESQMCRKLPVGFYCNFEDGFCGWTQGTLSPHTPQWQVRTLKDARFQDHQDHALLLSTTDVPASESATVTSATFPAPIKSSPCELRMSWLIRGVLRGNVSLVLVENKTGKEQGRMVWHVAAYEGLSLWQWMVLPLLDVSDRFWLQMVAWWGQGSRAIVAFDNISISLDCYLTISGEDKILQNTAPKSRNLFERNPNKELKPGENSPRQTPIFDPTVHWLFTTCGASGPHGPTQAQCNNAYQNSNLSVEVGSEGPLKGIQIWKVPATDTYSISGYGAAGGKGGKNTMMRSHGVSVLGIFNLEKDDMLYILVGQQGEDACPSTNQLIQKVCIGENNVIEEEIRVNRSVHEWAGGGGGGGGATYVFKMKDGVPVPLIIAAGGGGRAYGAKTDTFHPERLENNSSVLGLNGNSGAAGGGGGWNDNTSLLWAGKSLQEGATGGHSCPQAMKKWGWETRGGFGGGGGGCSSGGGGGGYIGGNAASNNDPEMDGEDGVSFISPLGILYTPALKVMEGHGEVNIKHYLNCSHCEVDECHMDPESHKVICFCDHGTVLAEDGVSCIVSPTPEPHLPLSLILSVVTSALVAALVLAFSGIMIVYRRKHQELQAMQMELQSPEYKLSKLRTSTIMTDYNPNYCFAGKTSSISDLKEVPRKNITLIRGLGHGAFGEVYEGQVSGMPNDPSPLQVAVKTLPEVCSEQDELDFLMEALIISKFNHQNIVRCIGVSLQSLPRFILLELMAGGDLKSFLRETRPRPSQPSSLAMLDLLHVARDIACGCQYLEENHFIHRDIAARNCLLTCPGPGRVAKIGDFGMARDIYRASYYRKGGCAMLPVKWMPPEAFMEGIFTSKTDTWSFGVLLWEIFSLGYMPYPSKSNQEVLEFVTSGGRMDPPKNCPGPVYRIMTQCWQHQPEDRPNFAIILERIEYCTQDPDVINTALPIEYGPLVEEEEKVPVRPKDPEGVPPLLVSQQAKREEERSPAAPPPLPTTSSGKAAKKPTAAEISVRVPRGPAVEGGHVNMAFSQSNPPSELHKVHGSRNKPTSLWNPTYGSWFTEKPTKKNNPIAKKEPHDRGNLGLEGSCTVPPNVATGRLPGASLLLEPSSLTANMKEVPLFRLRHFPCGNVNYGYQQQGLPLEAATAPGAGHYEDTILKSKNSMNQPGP
smiles,measurement,setting,value
CCc1nc(C(N)=O)c(Nc2ccc(N3CCC(N4CCN(C(=O)COc5cccc6c5CN(C5CCC(=O)NC5=O)C6=O)CC4)CC3)c(OC)c2)nc1NC1CCOCC1 (configuration not stated),Activity,[1],Dose-Dependent Effect
same,DC50,[1],0.64 nM
same,Emax,[2],94.8%
same,Activity,[3],Active
same,Activity,[4],inactive
same,Activity,[5],inactive
same,Activity,[6],inactive
same,Activity,[7],inactive
same,Activity,[8],inactive
same,Activity,[9],inactive
same,Activity,[10],inactive
same,Activity,[11],Active
same,Activity,[12],Active
same,pIC50,[13],8.82
same,Ratio IC50,[14],4.6
same,Activity,[15],Dose-Dependent Effect
same,Activity,[16],2.8%
same,Activity,[17],24.8%
same,Activity,[18],3.4%
same,Activity,[19],33.1%
same,Activity,[20],15.9%
same,Activity,[21],Active
same,Activity,[22],Active
same,Activity,[23],2.4%
same,Activity,[24],79.8%
same,Activity,[25],5.6%
same,Activity,[26],12.1%
same,Activity,[27],6.8%
same,Activity,[28],82.1%
same,Activity,[29],2.9%
same,Activity,[30],8.1%
same,inhibition,[31],Dose-Dependent Effect
same,Activity,[32],Active
same,inhibition,[33],Dose-Dependent Effect
same,inhibition,[34],Dose-Dependent Effect
same,Activity,[35],Active
same,Activity,[36],Non-Toxic
